Test results published in patent publication US20040106104A1, “Viral envelope mediated fusion assay” (priority 2002, published 2004).

Legend:
HIV LAI whole virus = experiment: Whole virus assay, LAI; type: cell-based; settings: read-out: BMS-806 EC50 Whole Virus
HIV NL4-3 whole virus = experiment: Whole virus assay, NL4-3; type: cell-based; settings: read-out: BMS-806 EC50 Whole Virus
HIV envelope BRH04820 = experiment: TOPO cell mediated fusion assay, clinical envelope BRH04820; type: cell-based; settings: clinical envelope BRH04820, source serum; read-out: BMS-806 EC50 TOPO Fusion
Experimental: (§1) The effector cells were prepared by transfecting 1.7×10^6 Hela H1 cells in a T75 flask with the linear viral envelope expression element and pTET-Off using a Lipofectamine Plus Kit (Invitrogen) as follows. 3 μg of the linear envelope expression vector and 3 μg of pTET-OFF were mixed with 750 μl of D-MEM media. 49 μl of Plus Reagent was added to the DNA mixture, the solution was mixed. After 15 minutes at room temperature a solution consisting of 750 μl D-MEM and 30 μl of lipofectamine was added to the DNA solution. The solution was mixed and incubated at room temperature for 15 minutes. The media from 1.7×10^6 Hela H1 cells ion a T75 flask was removed, the cells were washed with 15 ml of D-PBS, and 6 ml of D-MEM without serum was added to the cells. The DNA/lipofectamine solution was mixed, added to the cells and the cells were then incubated at 37° C. in the presence of 5% CO2. After 4 hours, the transfection mixture was removed and replaced with 15 ml of D-MEM 10% FBS and incubated overnight at 37° C. in the presence of 5% CO2.
(§2) Preparation of Target Cells Hela H1 cells expressing CD4, CXCR4, CCR5, and containing an integrated copy of a TRE/luciferase reporter gene were used as target cells. These cells were maintained in DMEM containing 10% FBS, 0.2 mg/ml G418, 0.4 mg/ml zeocin, 0.1 mg/ml hygromycin B, and 1.5 μg/ml puromycin. […]

HIV BRH04820 whole virus = experiment: Whole virus assay, BRH04820; type: cell-based; settings: BRH04820, source serum; read-out: BMS-806 EC50 Whole Virus
HIV 92US072 whole virus = experiment: Whole virus assay, 92US072; type: cell-based; settings: 92US072, source PBMC; read-out: BMS-806 EC50 Whole Virus
HIV envelope 92US072 = experiment: TOPO cell mediated fusion assay, clinical envelope 92US072; type: cell-based; settings: clinical envelope 92US072, source PBMC; read-out: BMS-806 EC50 TOPO Fusion
Experimental: as §1, §2

HIV envelope BRH04821 = experiment: TOPO cell mediated fusion assay, clinical envelope BRH04821; type: cell-based; settings: clinical envelope BRH04821, source serum; read-out: BMS-806 EC50 TOPO Fusion
Experimental: as §1, §2

HIV 93US157 whole virus = experiment: Whole virus assay, 93US157; type: cell-based; settings: 93US157, source PBMC; read-out: BMS-806 EC50 Whole Virus
HIV NL4-3 envelope = experiment: TOPO cell mediated fusion assay, NL4-3 envelope; type: cell-based; settings: envelope NL4-3; linear envelope expression element; Hela H1 effector and target cells, luciferase; read-out: BMS-806 EC50 TOPO Cell Fusion
Experimental: (§3) Preparation of Linear HIV Envelope Expression Element HIV viral RNA was isolated from 140 μl culture supernatant using a QIAamp Viral RNA Mini Kit (Qiagen Inc). The viral RNA was eluted in 60 μl of elution buffer. First strand cDNA was synthesized using the SuperScript First-Strand Synthesis system for RT-PCR (Invitrogen Corporation) using 8 μl of viral RNA and random hexamers according to the manufactures instructions. The HIV envelope gene was PCR amplified using 4 μl of first strand CDNA, primers BF17 5′-[sequence]-3′ and ENV-N 5′-[sequence]-3′ and a Platimun Taq DNA Polymerase High Fidelity Kit (Invitrogen) in a 100 μl reaction. The PCR product was purified using a QIAquick PCR Purification Kit (Qiagen Inc, Valencia, Calif.). In order to introduce the proper ends for the TOPO reaction 1 μl of the first PCR reaction was PCR amplified using primers:
(§4) in 100 μl as before. The PCR reaction was run on a 0.7% agarose gel and the about 3 kb HIV envelope gene was gel purified using a QIAquick Gel Extraction KIT (Qiagen Inc). The 5′ CMV promoter element and 3′ SV40 polyadenylation element were added to 700 ng of the HIV envelope PCR fragment using a TOPO Tools Kit (Invitrogen) and the final PCR product was purified as before. […]

HIV LAI envelope = HIV LAI envelope (Human immunodeficiency virus type 1 group M subtype B, UniProt P03377); settings: read-out: BMS-806 EC50 TOPO Cell Fusion, linear envelope expression element, Hela H1 effector and target cells, luciferase
Experimental: as §3, §4

HIV envelope 93US157 = experiment: TOPO cell mediated fusion assay, clinical envelope 93US157; type: cell-based; settings: clinical envelope 93US157, source PBMC; read-out: BMS-806 EC50 TOPO Fusion
Experimental: as §1, §2

HIV BRH04821 whole virus = experiment: Whole virus assay, BRH04821; type: cell-based; settings: BRH04821, source serum; read-out: BMS-806 EC50 Whole Virus

**Q.** Which EC50 (HIV LAI whole virus) does the source give for COc1ccnc2[nH]cc(C(=O)C(=O)N3CCN(C(=O)c4ccccc4)C[C@H]3C)c12 [BMS-806] here?
**A.** 2.5 nM

**Q.** What about the EC50 (HIV NL4-3 whole virus) of the same compound?
**A.** 2.1 nM

**Q.** And the EC50 (HIV envelope BRH04820)?
**A.** 5.5 nM

**Q.** And the EC50 (HIV BRH04820 whole virus)?
**A.** 5.5 nM

**Q.** What about the EC50 (HIV 92US072 whole virus) of the same compound?
**A.** 336 nM

**Q.** What about the EC50 (HIV envelope 92US072) of the same compound?
**A.** 818 nM

**Q.** What about the EC50 (HIV envelope BRH04821) of the same compound?
**A.** 2.7 nM

**Q.** What about the EC50 (HIV 93US157 whole virus) of the same compound?
**A.** 3.9 nM

**Q.** What about the EC50 (HIV NL4-3 envelope) of the same compound?
**A.** 5.7 nM

**Q.** And the EC50 (HIV LAI envelope)?
**A.** 3.5 nM

**Q.** What about the EC50 (HIV envelope 93US157) of the same compound?
**A.** 2.3 nM

**Q.** What about the EC50 (HIV BRH04821 whole virus) of the same compound?
**A.** 5.3 nM
